Reference: patent publication US6878736B1, “Histamine H3 receptor ligands” (James Black Foundation Limited, priority 1998, dated 2005)

Legend:
Histamine H3 receptor [1] = target: T1, Histamine H3 receptor (Cavia porcellus, UniProt Q9JI35); experiment: Histamine H3 functional assay, guinea pig ileum (ileal longitudinal muscle, myenteric plexus); parameters: species or system tissue; conditions: antagonist affinity from rightward shift of R-(α)-methylhistamine E/[A] curves (Schild), typical variance ±0.15 log units; for Kb: read-out: pKb (Guinea pig ileum) (converted)
T1 sequence (Q9JI35 whole entry): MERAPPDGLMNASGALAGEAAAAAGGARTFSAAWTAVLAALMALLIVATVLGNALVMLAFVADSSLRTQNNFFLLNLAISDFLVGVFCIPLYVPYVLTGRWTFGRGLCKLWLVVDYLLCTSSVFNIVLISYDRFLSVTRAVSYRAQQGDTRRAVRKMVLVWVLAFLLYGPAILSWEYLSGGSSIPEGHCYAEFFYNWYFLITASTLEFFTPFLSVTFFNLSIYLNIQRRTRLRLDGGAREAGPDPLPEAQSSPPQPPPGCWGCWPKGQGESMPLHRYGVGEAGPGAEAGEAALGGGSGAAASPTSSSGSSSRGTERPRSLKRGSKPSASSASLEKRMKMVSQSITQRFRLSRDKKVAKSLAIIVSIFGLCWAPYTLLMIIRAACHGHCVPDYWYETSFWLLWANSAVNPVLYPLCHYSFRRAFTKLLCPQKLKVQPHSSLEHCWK
In short: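 Longitudinal muscle–myenteric plexus strips from male Dunkin-Hartley guinea pigs (250-300 g), Krebs-Henseleit buffer at 37±1° C, field-stimulated at 0.1 Hz, 0.5 msec, supramaximal voltage; isometric recording. Cumulative R-(α)-methylhistamine E/[A] curves as % inhibition of twitch height; antagonist affinity by Schild analysis of rightward shift.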

Histamine H3 receptor [2] = target: T1, Histamine H3 receptor; experiment: Histamine H3 radioligand binding assay, guinea pig cortex ([3H]-R-α-methylhistamine); conditions: guinea pig cortex membranes, competition with 1 nM [3H]-R-α-methylhistamine; for Ki: read-out: pKi (Guinea pig cortex) (converted)
In short: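 Male Dunkin Hartley guinea pig cortical membranes incubated 165 min at 21±3 °C in 20 mM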

Row | Compound | Kb (Histamine H3 receptor [1]) [nM] | Ki (Histamine H3 receptor [2]) [nM] | pKb (Guinea pig ileum) (Histamine H3 receptor [1]) | pKi (Guinea pig cortex) (Histamine H3 receptor [2])
1 | CN1C[C@H](O)C[C@@H]1CCCNS(=O)(=O)NCc1ccc(Cl)cc1 [Example 132, N-(4-Chlorobenzyl)-N′-(3-(4R-hydroxy-1-methyl-pyrrolidin-2S-yl)-propyl)-sulfamide] | – | – | 5.8 | 6.9
2 | CN1CC(OCc2ccc(Cl)cc2)CC1CCCNS(=O)(=O)NCc1ccc(Cl)cc1 (stereo not drawn) [Example 133, N-(4-Chlorobenzyl)-N′-(3-(4R-(4-chlorobenzyloxy)-1-methyl-pyrrolidin-2S-yl)-propyl)-sulfamide] | > 3160 | 2510 | – | –
3 | O=S(=O)(NCCCN1CCCC1)NCc1ccc(Cl)cc1 [Example 135, N-(4-Chlorobenzyl)-N′-(3-pyrrolidin-1-yl-propyl)-sulfamide] | 631 | 316 | – | –
4 | O=S(=O)(NCCCCN1CCCC1)NCc1ccc(Cl)cc1 [Example 139, N-(4-Chlorobenzyl)-N′-(4-pyrrolidin-1-yl-butyl)-sulfamide] | 501 | 200 | – | –
5 | O=S(=O)(NCCCCN1CCCC1)N(CCCCN1CCCC1)Cc1ccc(Cl)cc1 [Example 140, N-(4-Chlorobenzyl)-N N′-bis(4-pyrrolidin-1-yl-butyl)-sulfamide] | 316 | 7.94 | – | –
6 | O=S(=O)(NCCCCCN1CCCC1)NCc1ccc(Cl)cc1 [Example 141, N-(4-Chlorobenzyl)-N′-(5-pyrrolidin-1-yl-pentyl)-sulfamide] | 501 | 251 | – | –
7 | CN1CCC[C@H]1CCCNS(=O)(=O)CCC1CCCCC1 [Example 142, N-(3-(1-Methyl-pyrrolidin-2S-yl)-propyl)-2-cyclohexyl-ethanesulfonamide] | 2000 | 631 | – | –
8 | N-Adamantan-1-yl-methyl-N′-(3-pyrrolidin-1-yl-propyl)-guanidine bis-hydrochloride [Example 28] | – | – | 6.7 | 7.5
9 | N-Adamantan-1-yl-methyl-N′-(4-pyrrolidin-1-yl-butyl)-guanidine bis-hydrochloride [Example 29] | – | – | 7.7 | 8.4
10 | N-Biphenyl-4-yl-methyl-N′-(5-pyrrolidin-1-yl-pentyl)-guanidine bis-hydrochloride [Example 55] | – | – | 6.6 | 7.5

Continued, in another order:

Row | Kb (Histamine H3 receptor [1]) [nM] | Ki (Histamine H3 receptor [2]) [nM] | Compound | pKb (Guinea pig ileum) (Histamine H3 receptor [1]) | pKi (Guinea pig cortex) (Histamine H3 receptor [2])
11 | 501 | 501 | CN1CCC[C@H]1CCCN(C)S(=O)(=O)N(C)Cc1ccc(Cl)cc1 [Example 120, N-(4-Chlorobenzyl)-N,N′-dimethyl-N′-(3-(1-methyl-pyrrolidin-2S-yl)-propyl)-sulfamide] | – | –
12 | 1000 | 316 | CN1CCC[C@H]1CCCNS(=O)(=O)N(C)Cc1ccc(Cl)cc1 [Example 121, N-(4-Chlorobenzyl)-N-methyl-N′-(3-(1-methyl-pyrrolidin-2S-yl)-propyl)-sulfamide] | – | –
13 | 316 | 126 | CN1CCC[C@H]1CCCN(C)S(=O)(=O)NCc1ccc(Cl)cc1 [Example 122, N-(4-Chlorobenzyl)-N′-methyl-N′-(3-(1-methyl-pyrrolidin-2S-yl)propyl)-sulfamide] | – | –
14 | > 3160 | 316 | CN1CCC[C@H]1CCCN(CCCN1C(=O)c2ccccc2C1=O)S(=O)(=O)NCc1ccc(Cl)cc1 [Example 125, N-(4-Chlorobenzyl)-N′-(3-phthalimido-propyl)-N′-(3-(1-methyl-pyrrolidin-2S-yl)propyl)-sulfamide] | – | –
15 | 2000 | 2000 | CNC(=O)CN(CCC[C@@H]1CCCN1C)S(=O)(=O)NCc1ccc(Cl)cc1 [Example 127, N-(4-Chlorobenzyl)-N′-(methylamidomethyl)-N′-(3-(1-methyl-pyrrolidin-2S-yl)propyl)-sulfamide] | – | –
16 | > 3160 | 1000 | CN1CCC[C@H]1CCCN(CCCc1ccc(Cl)cc1)S(=O)(=O)NCc1ccc(Cl)cc1 [Example 131, N-(4-Chlorobenzyl)-N′-(3-(4-chlorophenyl)propyl)-N′-(3-(1-methyl-pyrrolidin-2S-yl)propyl)-sulfamide] | – | –
17 | 316 | 316 | CN1CCCC1CCCCS(=O)(=O)NCc1ccc(Cl)cc1 (stereo not drawn) [Example 136, N-(4-Chlorobenzyl)-4-(1-methyl-pyrrolidin-2S-yl)-butanesulfonamide] | – | –
